Compound: COc1cccc2cc(-c3nc([C@H]4CC[C@H](C(=O)O)CC4)n4ncnc(N)c34)[nH]c12 [OSI-027] + CCNC(=O)c1noc(-c2cc(C(C)C)c(O)cc2O)c1-c1ccc(CN2CCOCC2)cc1 [Luminespib] (partner 0.01 µM)
Assay: relative viability (nuclei count vs DMSO), 5 days (fraction); higher = more cells survive
Conditions: first compound 0.01 µM
Procedure, shortened: (§1)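 Lung cancer cell lines were seeded in 1536-well plates and dosed by pin tool the next day, with either a single drug or a fixed anchor-drug dose combined with five library-drug doses (not always all listed) spaced in √10 steps. Five days later, one step fixed the cells and stained their nuclei (final 0.05% Triton X-100, 1% formaldehyde, 1 ug/ml Hoechst), and nuclei were counted on 4× images. Relative viability is the nuclei count in treated wells divided by the count in vehicle wells, and each value is the median of duplicate plates.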

Row | Cell Line | relative viability
1 | NCI-H358 | 0.384
2 | CAL-12T | 0.342
3 | COR-L 105 | 0.58
4 | LCLC-97TM1 | 0.846
5 | NCI-H520 | 0.258
6 | NCI-H2228 | 0.165
7 | HCC-827 | 0.775
8 | NCI-H2347 | 0.283
9 | LXF-289 | 0.544
10 | NCI-H1666 | 1.01
11 | RERF-LC-KJ | 1.41
12 | NCI-H650 | 0.757

Same assay, conditions: first compound 0.03162 µM

Row | Cell Line | relative viability
13 | A-427 | 0.891
14 | NCI-H2009 | 1.06
15 | ABC-1 | 0.321
16 | EKVX | 0.8
17 | NCI-H2087 | 0.166
18 | NCI-H1734 | 0.179
19 | LU99A | 0.221
20 | NCI-H460 | 0.032
21 | NCI-H2170 | 0.639
22 | SK-LU-1 | 0.198
23 | COR-L23 | 0.671
24 | HCC-15 | 0.501
25 | NCI-H1944 | 0.82
26 | EMC-BAC-2 | 1.17
27 | NCI-H1395 | 0.556
28 | LC-2-ad | 1.1
29 | NCI-H2085 | 0.437

Row | Cell Line | relative viability
30 | NCI-H727 | 0.328
31 | NCI-H647 | 0.146
32 | HARA | 0.839
33 | NCI-H3122 | 0.0843
34 | NCI-H358 | 0.295
35 | CAL-12T | 0.533
36 | COR-L 105 | 0.707
37 | LCLC-97TM1 | 0.688
38 | NCI-H520 | 0.37
39 | NCI-H2228 | 0.162
40 | NCI-H23 | 0.215
41 | HCC-827 | 0.75
42 | NCI-H2347 | 0.339
43 | LXF-289 | 0.612
44 | NCI-H1666 | 1
45 | RERF-LC-KJ | 1.09
46 | NCI-H650 | 0.731

Same assay, conditions: first compound 0.1 µM

Row | Cell Line | relative viability
47 | A-427 | 0.811
48 | NCI-H2009 | 1.05
49 | ABC-1 | 0.405
50 | EKVX | 0.872
51 | NCI-H2087 | 0.176
52 | NCI-H1734 | 0.203
53 | LU99A | 0.288
54 | NCI-H460 | 0.0283
55 | NCI-H2170 | 0.565
56 | SK-LU-1 | 0.173
57 | COR-L23 | 0.772
58 | HCC-15 | 0.397
59 | NCI-H1944 | 0.537
60 | EMC-BAC-2 | 0.95
61 | NCI-H1395 | 0.621
62 | LC-2-ad | 0.862
63 | NCI-H2085 | 0.439

Row | Cell Line | relative viability
64 | NCI-H727 | 0.381
65 | NCI-H647 | 0.145
66 | HARA | 0.706
67 | NCI-H3122 | 0.054
68 | NCI-H358 | 0.468
69 | CAL-12T | 0.589
70 | COR-L 105 | 0.862
71 | LCLC-97TM1 | 0.776
72 | NCI-H520 | 0.211
73 | NCI-H2228 | 0.0954
74 | NCI-H23 | 0.188
75 | HCC-827 | 0.51
76 | NCI-H2347 | 0.604
77 | LXF-289 | 0.471
78 | NCI-H1666 | 0.996
79 | RERF-LC-KJ | 1.08
80 | NCI-H650 | 0.749

Same assay, conditions: first compound 0.3162 µM

Row | Cell Line | relative viability
81 | A-427 | 0.61
82 | NCI-H2009 | 0.924
83 | ABC-1 | 0.377
84 | EKVX | 0.727
85 | NCI-H2087 | 0.133
86 | NCI-H1734 | 0.166
87 | LU99A | 0.22
88 | NCI-H460 | 0.0249
89 | NCI-H2170 | 0.544
90 | SK-LU-1 | 0.181
91 | COR-L23 | 0.499
92 | HCC-15 | 0.264
93 | NCI-H1944 | 0.534
94 | EMC-BAC-2 | 0.864
95 | NCI-H1395 | 0.546
96 | LC-2-ad | 0.874
97 | NCI-H2085 | 0.341

Row | Cell Line | relative viability
98 | NCI-H727 | 0.318
99 | NCI-H647 | 0.149
100 | HARA | 0.449
101 | NCI-H3122 | 0.0869
102 | NCI-H358 | 0.41
103 | CAL-12T | 0.0997
104 | COR-L 105 | 0.526
105 | LCLC-97TM1 | 0.378
106 | NCI-H520 | 0.168
107 | NCI-H2228 | 0.122
108 | NCI-H23 | 0.203
109 | HCC-827 | 0.337
110 | NCI-H2347 | 0.279
111 | LXF-289 | 0.458
112 | NCI-H1666 | 0.891
113 | RERF-LC-KJ | 1.09
114 | NCI-H650 | 0.648

Same assay, conditions: first compound 1 µM

Row | Cell Line | relative viability
115 | A-427 | 0.505
116 | NCI-H2009 | 0.603
117 | ABC-1 | 0.386
118 | EKVX | 0.604
119 | NCI-H2087 | 0.158
120 | NCI-H1734 | 0.178
121 | LU99A | 0.192
122 | NCI-H460 | 0.0266
123 | NCI-H2170 | 0.176
124 | SK-LU-1 | 0.152
125 | COR-L23 | 0.289
126 | HCC-15 | 0.339
127 | NCI-H1944 | 0.273
128 | EMC-BAC-2 | 0.379
129 | NCI-H1395 | 0.439
130 | LC-2-ad | 0.659
131 | NCI-H2085 | 0.231

Row | Cell Line | relative viability
132 | NCI-H727 | 0.479
133 | NCI-H647 | 0.0965
134 | HARA | 0.22
135 | NCI-H3122 | 0.0772
136 | NCI-H358 | 0.311
137 | CAL-12T | 0.117
138 | COR-L 105 | 0.472
139 | LCLC-97TM1 | 0.211
140 | NCI-H520 | 0.202
141 | NCI-H2228 | 0.111
142 | NCI-H23 | 0.225
143 | HCC-827 | 0.171
144 | NCI-H2347 | 0.288
145 | LXF-289 | 0.258
146 | NCI-H1666 | 0.915
147 | RERF-LC-KJ | 0.459
148 | NCI-H650 | 0.381

Compound: Cc1nc(NC(=O)N2CCC[C@H]2C(N)=O)sc1-c1ccnc(C(C)(C)C(F)(F)F)c1 [Alpelisib] + CS(=O)(=O)CCNCc1ccc(-c2ccc3ncnc(Nc4ccc(OCc5cccc(F)c5)c(Cl)c4)c3c2)o1 [Lapatinib] (partner 2 µM)
Assay: as above
Conditions: first compound 0.04 µM
Procedure, shortened: as §1

Row | Cell Line | relative viability
149 | A-427 | 1.03
150 | NCI-H2009 | 0.99
151 | ABC-1 | 0.943
152 | EKVX | 0.195
153 | NCI-H2087 | 1.02
154 | NCI-H1734 | 1.09
155 | LU99A | 0.873
156 | NCI-H460 | 1.02
157 | NCI-H2170 | 0.269
158 | SK-LU-1 | 1.07
